Drawing on US12252524B2, “GIP/GLP1 co-agonist compounds” (Eli Lilly and Company, priority 2018, dated 2025), this text covers EC50 for 4 compounds.

Structures are written as SMILES. Square brackets hold non-standard residues; d marks the D form. Peptide text beside a SMILES is read from it. αMePhe(2-F) = C[C@](N)(Cc1ccccc1F)C(=O)O; αMeY = C[C@](N)(Cc1ccc(O)cc1)C(=O)O; 4Pal = N[C@@H](Cc1ccncc1)C(=O)O; αMeL = CC(C)C[C@](C)(N)C(=O)O; Orn = NCCC[C@H](N)C(=O)O; Aib = CC(C)(N)C(=O)O

For assay [1], the target named is T1, gastric inhibitory peptide receptor (GIPR) (Homo sapiens, UniProt P48546).
T1 sequence (P48546 22-466): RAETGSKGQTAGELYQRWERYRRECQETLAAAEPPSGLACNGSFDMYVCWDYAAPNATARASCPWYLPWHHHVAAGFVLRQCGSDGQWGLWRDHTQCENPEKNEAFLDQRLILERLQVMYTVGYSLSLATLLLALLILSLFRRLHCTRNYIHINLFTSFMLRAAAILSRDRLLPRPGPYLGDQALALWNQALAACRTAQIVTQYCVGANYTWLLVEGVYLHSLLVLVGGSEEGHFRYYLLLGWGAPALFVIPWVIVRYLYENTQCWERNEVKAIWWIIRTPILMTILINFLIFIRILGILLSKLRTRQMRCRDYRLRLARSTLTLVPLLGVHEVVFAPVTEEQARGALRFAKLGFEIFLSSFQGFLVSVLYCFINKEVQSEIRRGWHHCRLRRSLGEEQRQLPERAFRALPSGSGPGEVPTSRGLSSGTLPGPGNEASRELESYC
Description: cAMP pharmacological functional assay in presence of casein, hGIPR. It is filed as cell-based. Conditions: HEK293 cells expressing hGIPR, 0.1% Casein, geometric mean; read-out: hGIPR cAMP Rel EC50 nM (SEM, n).

In assay [2] the target is human GLP-1 receptor (GLP-1R) (Homo sapiens, UniProt P43220). The assay can be described thus: cAMP pharmacological functional assay in presence of casein, hGLP-1R. Format: cell-based. The following applies: HEK293 cells expressing hGLP-1R, 0.1% Casein, geometric mean; read-out: hGLP1R cAMP Rel EC50 nM (SEM, n).
human GLP-1 receptor (GLP-1R), sequence (P43220 24-463): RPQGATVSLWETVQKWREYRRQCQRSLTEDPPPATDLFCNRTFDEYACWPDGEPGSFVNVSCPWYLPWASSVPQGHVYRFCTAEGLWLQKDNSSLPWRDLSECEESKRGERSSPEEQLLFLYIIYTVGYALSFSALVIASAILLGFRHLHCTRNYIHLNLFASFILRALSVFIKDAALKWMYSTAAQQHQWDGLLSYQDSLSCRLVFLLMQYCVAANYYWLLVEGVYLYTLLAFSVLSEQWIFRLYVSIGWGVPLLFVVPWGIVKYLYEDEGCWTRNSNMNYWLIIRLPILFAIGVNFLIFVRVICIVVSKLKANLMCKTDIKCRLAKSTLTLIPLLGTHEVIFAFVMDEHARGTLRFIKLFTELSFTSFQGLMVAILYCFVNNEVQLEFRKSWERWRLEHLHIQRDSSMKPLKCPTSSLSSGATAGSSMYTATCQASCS

In general, EC50 refers to the concentration giving half of the maximal effect. On to `CC[C@H](C)[C@H](NC(=O)[C@H](CC(C)C)NC(=O)[C@](C)(Cc1ccc(O)cc1)NC(=O)[C@@H](CCC(=O)O)NC(=O)[C@@H](NC(=O)[C@H](Cc1ccccc1)NC(=O)[C@H](CCC(=O)O)NC(=O)C(C)(C)NC(=O)[C@H](CCC(N)=O)NC(=O)[C@H](C)NC(=O)[C@H](CCCCN)NC(=O)[C@H](CCCN)NC(=O)[C@H](CC(=O)O)NC(=O)[C@H](CC(C)C)NC(=O)[C@](C)(CC(C)C)NC(=O)[C@@H](NC(=O)[C@H](CO)NC(=O)[C@H](Cc1ccncc1)NC(=O)[C@H](CC(=O)O)NC(=O)[C@H](CO)NC(=O)[C@@H](NC(=O)[C@](C)(Cc1ccccc1F)NC(=O)[C@@H](NC(=O)CNC(=O)[C@H](CCC(=O)O)NC(=O)C(C)(C)NC(=O)[C@@H](N)Cc1ccc(O)cc1)[C@@H](C)O)[C@@H](C)O)[C@@H](C)CC)[C@@H](C)CC)C(=O)N[C@@H](CCC(=O)O)C(=O)NCC(=O)NCC(=O)N1CCC[C@H]1C(=O)N[C@@H](CO)C(=O)N[C@@H](CO)C(=O)NCC(=O)N[C@@H](C)C(=O)N1CCC[C@H]1C(=O)N1CCC[C@H]1C(=O)N1CCC[C@H]1C(=O)N[C@@H](CO)C(N)=O` [Example 284] (H-Y[Aib]EGT[αMePhe(2-F)]TSD[4Pal]SI[αMeL]LD[Orn]KAQ[Aib]EFI[dE][αMeY]LIEGGPSSGAPPPS-NH2), for which the EC50 was 0.113 nM in assay [1] and 0.0462 nM in assay [2].
On to `CC[C@H](C)[C@H](NC(=O)[C@H](CC(C)C)NC(=O)[C@](C)(Cc1ccc(O)cc1)NC(=O)[C@@H](CCC(=O)O)NC(=O)[C@@H](NC(=O)[C@H](Cc1ccccc1)NC(=O)[C@H](CCC(=O)O)NC(=O)C(C)(C)NC(=O)[C@H](CCC(N)=O)NC(=O)[C@H](C)NC(=O)[C@H](CCC(N)=O)NC(=O)[C@H](CCCN)NC(=O)[C@H](CC(=O)O)NC(=O)[C@H](CC(C)C)NC(=O)[C@](C)(CC(C)C)NC(=O)[C@@H](NC(=O)[C@H](CO)NC(=O)[C@H](Cc1ccncc1)NC(=O)[C@H](CC(=O)O)NC(=O)[C@H](CO)NC(=O)[C@@H](NC(=O)[C@](C)(Cc1ccccc1F)NC(=O)[C@@H](NC(=O)CNC(=O)[C@H](CCC(=O)O)NC(=O)C(C)(C)NC(=O)[C@@H](N)Cc1ccc(O)cc1)[C@@H](C)O)[C@@H](C)O)[C@@H](C)CC)[C@@H](C)CC)C(=O)N[C@@H](CCC(=O)O)C(=O)NCC(=O)NCC(=O)N1CCC[C@H]1C(=O)N[C@@H](CO)C(=O)N[C@@H](CO)C(=O)NCC(=O)N[C@@H](C)C(=O)N1CCC[C@H]1C(=O)N1CCC[C@H]1C(=O)N1CCC[C@H]1C(=O)N[C@@H](CO)C(N)=O` [Example 285] (H-Y[Aib]EGT[αMePhe(2-F)]TSD[4Pal]SI[αMeL]LD[Orn]QAQ[Aib]EFI[dE][αMeY]LIEGGPSSGAPPPS-NH2), for which the EC50 stood at 0.0884 nM in assay [1] and 0.072 nM in assay [2].
On the same counts, the results for `CC[C@H](C)[C@H](NC(=O)[C@H](CC(C)C)NC(=O)[C@](C)(Cc1ccc(O)cc1)NC(=O)[C@@H](CCC(=O)O)NC(=O)[C@@H](NC(=O)[C@H](Cc1ccccc1)NC(=O)[C@H](CCC(=O)O)NC(=O)C(C)(C)NC(=O)[C@H](CCC(N)=O)NC(=O)[C@H](C)NC(=O)[C@H](CCCCN)NC(=O)[C@H](CCCN)NC(=O)[C@H](CC(=O)O)NC(=O)[C@H](CC(C)C)NC(=O)[C@](C)(CC(C)C)NC(=O)[C@@H](NC(=O)[C@H](CO)NC(=O)[C@H](Cc1ccncc1)NC(=O)[C@H](CC(=O)O)NC(=O)[C@H](CO)NC(=O)[C@@H](NC(=O)[C@](C)(Cc1ccccc1F)NC(=O)[C@@H](NC(=O)CNC(=O)[C@H](CCC(=O)O)NC(=O)C(C)(C)NC(=O)[C@@H](N)Cc1ccc(O)cc1)[C@@H](C)O)[C@@H](C)O)[C@@H](C)CC)[C@@H](C)CC)C(=O)N[C@@H](CCC(=O)O)C(=O)NCC(=O)NCC(=O)N1CCC[C@H]1C(=O)N[C@@H](CO)C(=O)N[C@@H](CO)C(=O)NCC(=O)N[C@@H](C)C(=O)N1CCC[C@H]1C(=O)N1CCC[C@H]1C(=O)N1CCC[C@H]1C(=O)N[C@@H](CO)C(=O)N[C@@H](CS)C(N)=O` [Example 286] (H-Y[Aib]EGT[αMePhe(2-F)]TSD[4Pal]SI[αMeL]LD[Orn]KAQ[Aib]EFI[dE][αMeY]LIEGGPSSGAPPPSC-NH2) are 0.184 nM and 0.0602 nM.
On the same counts, the results for `CC[C@H](C)[C@H](NC(=O)[C@H](CC(C)C)NC(=O)[C@](C)(Cc1ccc(O)cc1)NC(=O)[C@@H](CCC(=O)O)NC(=O)[C@@H](NC(=O)[C@H](Cc1ccccc1)NC(=O)[C@H](CCC(=O)O)NC(=O)C(C)(C)NC(=O)[C@H](CCC(N)=O)NC(=O)[C@H](C)NC(=O)[C@H](CCC(N)=O)NC(=O)[C@H](CCCN)NC(=O)[C@H](CC(=O)O)NC(=O)[C@H](CC(C)C)NC(=O)[C@](C)(CC(C)C)NC(=O)[C@@H](NC(=O)[C@H](CO)NC(=O)[C@H](Cc1ccncc1)NC(=O)[C@H](CC(=O)O)NC(=O)[C@H](CO)NC(=O)[C@@H](NC(=O)[C@](C)(Cc1ccccc1F)NC(=O)[C@@H](NC(=O)CNC(=O)[C@H](CCC(=O)O)NC(=O)C(C)(C)NC(=O)[C@@H](N)Cc1ccc(O)cc1)[C@@H](C)O)[C@@H](C)O)[C@@H](C)CC)[C@@H](C)CC)C(=O)N[C@@H](CCC(=O)O)C(=O)NCC(=O)NCC(=O)N1CCC[C@H]1C(=O)N[C@@H](CO)C(=O)N[C@@H](CO)C(=O)NCC(=O)N[C@@H](C)C(=O)N1CCC[C@H]1C(=O)N1CCC[C@H]1C(=O)N1CCC[C@H]1C(=O)N[C@@H](CO)C(=O)N[C@@H](CS)C(N)=O` [Example 287] (H-Y[Aib]EGT[αMePhe(2-F)]TSD[4Pal]SI[αMeL]LD[Orn]QAQ[Aib]EFI[dE][αMeY]LIEGGPSSGAPPPSC-NH2) are 0.15 nM and 0.112 nM.
